Measured values published in US20230130103A1, “TARGETED PHARMACOLOGICAL THERAPEUTICS IN UVEAL MELANOMA” (Washington University, priority 2017, published 2023).
Starred links: 1 amine or outer side, 2 acyl side, 3 side chain; linkers in the order of their positions; H or OH if unused. Positions of bridges follow the written chain, without caps; N, C: chain ends. Non-standard residues stand in square brackets, D forms with d. Residues, ends and D or L forms follow the SMILES beside them. *: point of attachment. Leu(3R-OH,Nα-propionyl) = CCC(=O)N[C@H](C(=O)*)[C@H](O)C(C)C; X1 = CC(C)[C@@H](O[*:3])[C@H](N[*:1])C(=O)[*:2]; X2 = CC(C)[C@H](O[*:3])[C@@H](N[*:1])C(=O)[*:2]; NMeaThr = CN[C@H](C(=O)O)[C@H](C)O; dPhLac = O=C(O)[C@H](O)Cc1ccccc1; NMeA = CN[C@@H](C)C(=O)O; NMeDha = C=C(NC)C(=O)O

System: 92.1 UM cells
Experiment: Gene Set Enrichment Analysis (GSEA) of RNA-Seq data
Assay type: cell-based, Human
[1] = gene set REACTOME_ADAPTIVE_IMMUNE_SYSTEM
[2] = gene set REACTOME_APC_C_CDC20_MEDIATED_DEGRADATION_OF_MITOTIC_PROTEINS
[3] = gene set REACTOME_APC_C_CDH1_MEDIATED_DEGRADATION_OF_CDC20_AND_OTHER_APC_C_CDH1_TARGETED_PROTEINS_IN_LATE_MITOSIS_EARLY_G1
[4] = gene set REACTOME_B[?]_INFECTION
[5] = gene set REACTOME_CHOLESTEROL_BIOSYNTHESIS
[6] = gene set REACTOME_DOUBLE_STRAND_BREAK_REPAIR
[7] = gene set REACTOME_E2F_MEDIATED_REGULATION_OF_DNA_REPLICATION
[8] = gene set REACTOME_EXTENSION_OF_TELOMERES
[9] = gene set REACTOME_FACTORS_INVOLVED_IN_MEGAKARYOCYTE_DEVELOPMENT_AND_PLATELET_PRODUCTION
[10] = gene set REACTOME_G0_AND_EARLY_G1
[11] = gene set REACTOME_HOST_INTERACTIONS_HIV_FACTORS
[12] = gene set REACTOME_LICAM_INTERACTIONS
[13] = gene set REACTOME_METABOLISM_OF_NON_CODING_RNA
[14] = gene set REACTOME_PREFOLDIN_MEDIATED_TRANSFER_OF_SUBSTRATE_TO_CCT_TRIC
[15] = gene set REACTOME_TRANSPORT_OF_MATURE_MRNA_DERIVED_FROM_AN_INTRONLESS_TRANSCRIPT
[16] = gene set REACTOME_[?]_REMOVAL_FROM_CHROMATIN
[17] = gene set REACTOM_GLUCONE_TRANSPORT
[18] = gene set RMEIN_GLUCOCORTICOID_THERAPY_DN
[19] = gene set SAKAL_CHRONIC_HEPATITIS_VS_LIVER_CANCER_UP
[20] = gene set SASAKI_ADULT_T_CELL_LEUKEMIA
[21] = gene set SASSON_RESPONSE_TO_FORSKOLIN_UP
[22] = gene set SASSON_RESPONSE_TO_GONADOTRPHINS_UP
[23] = gene set SCHMIDT_FOR_TARGETS_IN_LIMB_BUD_UP
[24] = gene set SCIBETTA_KDMS8_TARGETS_DN
[25] = gene set SENESE_HDAC1_TARGETS_UP
[26] = gene set SENESE_HDAC2_TARGETS_UP
[27] = gene set SHEPARD_CRUSH_AND_BURN_MUTANT_DN
[28] = gene set SMIRNOV_RESPONSE_TO_IR_6HR_DN
[29] = gene set WAKASUGI_HAVE_ZNF143_BINDING_SITES
[30] = gene set WELSCH_BRCA1_TARGETS_DN
[31] = gene set WHITFIELD_CELL_CYCLE_5
[32] = gene set WHITFIELD_CELL_CYCLE_M_G2
[33] = gene set [?]_APOPTOSIS_BY_REOVIRUS_INFECTION_DN
[34] = gene set [?]_E2F3_ONCOGENIC_SIGNATURE
[35] = gene set [?]_ESTRADIOL_RESPONSE_6HR_UP
[36] = gene set [?]_HYPOXIA_NOT_VIA_[?]
[37] = gene set [?]_OVARIAN_CANCER_INVAVSIVE_VS_LMP_UP
[38] = gene set [?]_PSEUDOPODIA_HAPTOTAXIS_DN
[39] = gene set […]_NEUTROPHIL_AT_SKIN_WOUND_DN
[40] = gene set mARTORIATE_MDM4_TARGETS_FETAL_LIVER_DN

C=C1C(=O)N[C@@H](C)C(=O)N(C)[C@@H](C)C(=O)N[C@H]([C@@H](OC(=O)[C@@H](NC(=O)CC)[C@H](O)C(C)C)C(C)C)C(=O)N(C)[C@@H]([C@H](C)OC)C(=O)O[C@H](C(C)C)[C@H](NC(C)=O)C(=O)O[C@H](Cc2ccccc2)C(=O)N1C [FR, [(1S)-1-[(3S,6R,9S,12S,18R,21S,22R)-21-acetamido-18-benzyl-3-[(1S)-1-methoxyethyl]-4,9,10,12,16-pentamethyl-15-methylidene-2,5,8,11,14,17,20-heptaoxo-22-propan-2-yl-1,19-dioxa-4,7,10,13,16-pentazacyclodocos-6-yl]-2-methylpropyl] (2S,3R)-3-hydroxy-4-methyl-2-(propanoylamino)pentanoate] (Ac-[X1][dPhLac][NMeDha]A[NMeA][X2](Leu(3R-OH,Nα-propionyl))[NMeaThr](Me); ester 1-C)
ES [1]: 0.3979 | NES [1]: 2.13 | ES [2]: 0.5518 | NES [2]: 2.142 | ES [3]: 0.56 | NES [3]: 2.187 | ES [4]: 0.4639 | NES [4]: 2.188 | ES [5]: 0.6781 | NES [5]: 2.138 | ES (gene set REACTOME_DNA_REPAIR): 0.4835 | NES (gene set REACTOME_DNA_REPAIR): 2.1 | ES [6]: 0.6821 | NES [6]: 2.156 | ES [7]: 0.5585 | NES [7]: 2.256 | ES [8]: 0.6128 | NES [8]: 2.062 | ES [9]: 0.4943 | NES [9]: 2.346 | ES [10]: 0.5589 | NES [10]: 2.109 | ES [11]: 0.4871 | NES [11]: 2.139 | ES [12]: 0.4901 | NES [12]: 2.064 | ES [13]: 0.5725 | NES [13]: 2.142 | ES (gene set REACTOME_NEP_NS2_INTERACTS_WITH_THE_CELLULAR_EXPORT_MACHINERY): 0.6472 | ES [14]: 0.6276 | NES [14]: 2.059 | ES [15]: 0.6258 | NES [15]: 2.187 | ES [16]: 0.5346 | NES [16]: 2.104 | ES [17]: 0.6343 | NES [17]: 2.211 | NES (gene set REN_ALVEOLAR_RHABDOMYOSARCOMA_DN): 2.084 | ES [18]: 0.429 | NES [18]: 2.253 | ES [19]: 0.4953 | NES [19]: 2.051 | ES [20]: 0.4693 | NES [20]: 2.213 | ES [21]: 0.4936 | NES [21]: 2.087 | ES [22]: 0.5309 | NES [22]: 2.23 | ES [23]: 0.6919 | NES [23]: 2.232 | ES [24]: 0.4986 | NES [24]: 2.107 | ES [25]: 0.4141 | NES [25]: 2.222 | ES [26]: 0.4933 | NES [26]: 2.179 | ES (gene set SHEPARD_BMYB_TARGETS): 0.5123 | NES (gene set SHEPARD_BMYB_TARGETS): 2.125 | ES [27]: 0.4366 | NES [27]: 2.055 | NES (gene set SHIPP_D[?]CL_VS_FOLLICULAR_LYMPHOMA_UP): 2.142 | ES [28]: 0.4874 | NES [28]: 2.135 | ES (gene set SP1_Q4_01): 0.4346 | NES (gene set SP1_Q4_01): 2.133 | ES (gene set TBK1DF_DN): 0.434 | NES (gene set TBK1DF_DN): 2.201 | ES [29]: 0.5464 | NES [29]: 2.135 | ES [30]: 0.4808 | NES [30]: 2.25 | ES [31]: 0.4808 | NES [31]: 2.252 | ES [32]: 0.4742 | NES [32]: 2.151 | ES (gene set WINTER_HYPOXIA_UP): 0.5079 | NES (gene set WINTER_HYPOXIA_UP): 2.091 | ES (gene set [?]ENPORAIN_17513976.21_2): 0.5458 | ES [33]: 0.4088 | NES [33]: 2.137 | ES [34]: 0.4474 | NES [34]: 2.256 | ES [35]: 0.4279 | NES [35]: 2.138 | ES [36]: 0.3777 | NES [36]: 2.125 | ES [37]: 0.4908 | NES [37]: 2.191 | ES [38]: 0.396 | NES [38]: 2.222 | ES (gene set [?]_[?]1): 0.4368 | NES (gene set [?]_[?]1): 2.127 | ES (gene set [?]_[?]_Q6): 0.372 | NES (gene set [?]_[?]_Q6): 2.07 | ES [39]: 0.4325 | NES [39]: 2.066 | ES [40]: 0.4046 | NES [40]: 2.198
